Data from the supplement of paper PMC10307832.

Experiments:
Test in all cases: relative viability (nuclei count vs DMSO), 5 days (fraction); higher = more cells survive
GW-2580 + Vorinostat = compound: COC1=CC=C(C=C1)COC2=C(C=C(C=C2)CC3=CN=C(N=C3N)N)OC [GW-2580] + O=C(CCCCCCC(=O)Nc1ccccc1)NO [Vorinostat] (partner 1 µM)
Summary of the method: (§1)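 Each reported value is a median over duplicate plates. It expresses relative viability: treated-well nuclei count divided by vehicle-well nuclei count. Lung cancer cell lines in 1536-well plates were dosed by pin tool a day after seeding, alone with one drug or with a fixed anchor-drug dose plus five library-drug doses (not always all listed) in √10 steps, and nuclei were counted after 5 days.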

Fedratinib + Luminespib = compound: Cc1cnc(Nc2ccc(OCCN3CCCC3)cc2)nc1Nc1cccc(S(=O)(=O)NC(C)(C)C)c1 [Fedratinib] + CCNC(=O)c1noc(-c2cc(C(C)C)c(O)cc2O)c1-c1ccc(CN2CCOCC2)cc1 [Luminespib] (partner 0.01 µM)
Summary of the method: as §1

Fedratinib + OSI-027 = compound: Cc1cnc(Nc2ccc(OCCN3CCCC3)cc2)nc1Nc1cccc(S(=O)(=O)NC(C)(C)C)c1 [Fedratinib] + COc1cccc2cc(-c3nc([C@H]4CC[C@H](C(=O)O)CC4)n4ncnc(N)c34)[nH]c12 [OSI-027] (partner 0.5 µM)
Summary of the method: as §1

Fedratinib + Linsitinib = compound: Cc1cnc(Nc2ccc(OCCN3CCCC3)cc2)nc1Nc1cccc(S(=O)(=O)NC(C)(C)C)c1 [Fedratinib] + C[C@]1(O)C[C@@H](c2nc(-c3ccc4ccc(-c5ccccc5)nc4c3)c3c(N)nccn32)C1 [Linsitinib] (partner 1 µM)
Summary of the method: as §1

Fedratinib + Tozasertib = compound: Cc1cnc(Nc2ccc(OCCN3CCCC3)cc2)nc1Nc1cccc(S(=O)(=O)NC(C)(C)C)c1 [Fedratinib] + Cc1cc(Nc2cc(N3CCN(C)CC3)nc(Sc3ccc(NC(=O)C4CC4)cc3)n2)n[nH]1 [Tozasertib] (partner 0.1 µM)
Summary of the method: as §1

Fedratinib + Olaparib = compound: Cc1cnc(Nc2ccc(OCCN3CCCC3)cc2)nc1Nc1cccc(S(=O)(=O)NC(C)(C)C)c1 [Fedratinib] + O=C(c1cc(Cc2n[nH]c(=O)c3ccccc23)ccc1F)N1CCN(C(=O)C2CC2)CC1 [Olaparib] (partner 8 µM)
Summary of the method: as §1

Cell Line	relative viability (GW-2580 + Vorinostat; first compound 0.08 µM)	relative viability (GW-2580 + Vorinostat; first compound 0.8 µM)	relative viability (GW-2580 + Vorinostat; first compound 2.53 µM)	relative viability (GW-2580 + Vorinostat; first compound 8 µM)	relative viability (Fedratinib + Luminespib; first compound 0.1 µM)	relative viability (Fedratinib + Luminespib; first compound 0.3162 µM)	relative viability (Fedratinib + Luminespib; first compound 1 µM)	relative viability (Fedratinib + OSI-027; first compound 0.1 µM)	relative viability (Fedratinib + OSI-027; first compound 0.3162 µM)	relative viability (Fedratinib + OSI-027; first compound 1 µM)	relative viability (Fedratinib + Linsitinib; first compound 0.1 µM)	relative viability (Fedratinib + Linsitinib; first compound 0.3162 µM)	relative viability (Fedratinib + Linsitinib; first compound 1 µM)	relative viability (Fedratinib + Tozasertib; first compound 0.1 µM)	relative viability (Fedratinib + Tozasertib; first compound 0.3162 µM)	relative viability (Fedratinib + Tozasertib; first compound 1 µM)	relative viability (Fedratinib + Olaparib; first compound 0.1 µM)	relative viability (Fedratinib + Olaparib; first compound 0.3162 µM)	relative viability (Fedratinib + Olaparib; first compound 1 µM)
EPLC-272H	0.381	0.409	0.301	0.334	0.208	0.167	0.205	0.276	0.289	0.114	1.45	0.983	0.993	0.178	0.318	0.251	0.601	0.847	0.459
NCI-H1395	0.669	0.662	0.623	0.742	0.661	0.868	0.62	0.553	0.694	0.545	1.2	1.29	1.28	0.623	0.874	0.653	0.416	0.468	0.444
NCI-H2126	0.817	0.794	0.749	0.814	0.929	0.962	0.834	0.757	0.736	0.704	0.689	0.732	0.682	0.429	0.818	0.781	0.927	0.939	0.938
LXF-289	0.843	0.806	0.776	0.72	0.741	0.665	0.747	0.796	0.792	0.791	0.989	0.943	0.963	0.149	0.185	0.151	1.11	1.01	0.994
NCI-H2009	0.774	0.834	0.702	0.679	1.04	1.09	0.943	0.529	0.632	0.455	1.18	1.18	1.17	0.547	0.792	0.652	0.692	0.694	0.649
NCI-H2405	1.05	1.19	0.9	0.785	0.57	0.701	0.562	0.601	0.618	0.61	0.704	0.962	0.702	0.418	0.705	0.612	0.837	0.835	0.802
NCI-H1755	1.03	0.77	0.7	0.748	0.367	0.595	0.381	0.601	0.757	0.651	0.995	1	0.885	0.53	0.524	0.523	0.898	0.861	0.855
